Biological target: human plasma kallikrein (Homo sapiens (Human), UniProt P03952)
Details: human plasma kallikrein 25 pM, substrate 0.5 uM, 1 hour pre-incubation at room temperature, read at t=60 min

human plasma kallikrein, sequence (P03952 whole entry, looked up): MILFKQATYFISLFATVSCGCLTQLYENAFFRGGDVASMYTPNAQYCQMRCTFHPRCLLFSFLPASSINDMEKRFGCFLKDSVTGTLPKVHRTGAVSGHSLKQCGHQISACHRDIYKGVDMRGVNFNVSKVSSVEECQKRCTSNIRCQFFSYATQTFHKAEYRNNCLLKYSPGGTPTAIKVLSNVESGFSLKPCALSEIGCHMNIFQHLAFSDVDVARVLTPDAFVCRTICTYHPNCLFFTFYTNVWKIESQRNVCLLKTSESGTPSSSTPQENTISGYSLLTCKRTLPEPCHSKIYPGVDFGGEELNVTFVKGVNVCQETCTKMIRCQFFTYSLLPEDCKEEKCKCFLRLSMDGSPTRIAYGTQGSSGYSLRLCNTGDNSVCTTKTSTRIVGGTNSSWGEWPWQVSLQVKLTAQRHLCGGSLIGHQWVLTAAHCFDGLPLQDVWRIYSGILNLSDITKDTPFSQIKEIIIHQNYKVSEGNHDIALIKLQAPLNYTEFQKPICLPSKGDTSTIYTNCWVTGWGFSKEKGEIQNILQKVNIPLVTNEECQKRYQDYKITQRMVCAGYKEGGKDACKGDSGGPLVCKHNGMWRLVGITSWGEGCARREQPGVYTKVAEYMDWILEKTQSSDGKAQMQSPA
human plasma kallikrein, sequence (P03952 whole entry partner, looked up): as the sequence (P03952 whole entry, looked up) above

Row | SMILES | IC50 [nM]
1 | Cc1cc(N)nc(C)c1CNC(=O)c1cn(Cc2ccc(Oc3ccccc3)cc2)nn1 [Example 38, N-((6-amino-2,4-dimethylpyridin-3-yl)methyl)-1-(4-phenoxybenzyl)-1H-1,2,3-triazole-4-carboxamide] | 19
2 | Cc1cc(N)nc(C)c1CNC(=O)c1cn(Cc2cccc3ccccc23)nn1 [Example 39, N-((6-amino-2,4-dimethylpyridin-3-yl)methyl)-1-(naphthalen-1-ylmethyl)-1H-1,2,3-triazole-4-carboxamide] | 634
3 | Cc1cc(N)nc(C)c1CNC(=O)c1cn(Cc2ccc3ccccc3c2)nn1 [Example 40, N-((6-amino-2,4-dimethylpyridin-3-yl)methyl)-1-(naphthalen-2-ylmethyl)-1H-1,2,3-triazole-4-carboxamide] | 9
4 | Cc1cc(N)nc(C)c1CNC(=O)c1cn(Cc2ccc(-n3cccn3)cc2)nn1 [Example 41, 1-(4-(1H-pyrazol-1-yl)benzyl)-N-((6-amino-2,4-dimethylpyridin-3-yl)methyl]-1H-1,2,3-triazole-4-carboxamide] | 108
5 | Cc1cc(N)nc(C)c1CNC(=O)c1cn(Cc2cccc(-n3cccn3)c2)nn1 [Example 42, 1-(3-(1H-pyrazol-1-yl)benzyl)-N-((6-amino-2,4-dimethylpyridin-3-yl)methyl)-1H-1,2,3-triazole-4-carboxamide] | 145
6 | Cc1cc(N)nc(C)c1CNC(=O)c1cn(Cc2cccc(N3CCCC3)c2)nn1 [Example 43, N-((6-amino-2,4-dimethylpyridin-3-yl)methyl)-1-(3-(pyrolidin-1-yl)benzyl)-1H-1,2,3-triazole-4-carboxamide] | 113
7 | Cc1cc(N)nc(C)c1CNC(=O)c1cnn(Cc2cc3ccccc3o2)n1 [Example 44, N-((6-amino-2,4-dimethylpyridin-3-yl)methyl)-2-(benzofuran-2-ylmethyl)-2H-1,2,3-triazole-4-carboxamide] | 215
8 | Cc1cc(N)nc(C)c1CNC(=O)c1cn(Cc2ccc(Cn3ccnc3)cc2)nn1 [Example 45, 1-(4-((1H-imidazol-1-yl)methyl)benzyl)-N-((6-amino-2,4-dimethylpyridin-3-yl)methyl)-1H-1,2,3-triazole-4-carboxamide] | 45
9 | Cc1cc(N)nc(C)c1CNC(=O)c1cn(Cc2cccc(Cn3ccnc3)c2)nn1 [Example 46, 1-(3-((1H-imidazol-1-yl)methyl)benzyl)-N-((6-amino-2,4-dimethylpyridin-3-yl)methyl)-1H-1,2,3-triazole-4-carboxamide] | 1100
10 | Cc1cc(N)nc(C)c1CNC(=O)c1csc(Cc2ccccc2)n1 [Example 47, N-((6-amino-2,4-dimethylpyridin-3-yl)methyl)-2-benzylthiazole-4-carboxamide] | 3200
11 | Cc1cc(N)nc(C)c1CNC(=O)c1ccc(Oc2ccccc2)o1 [Example 48, N-((6-amino-2,4-dimethylpyridin-3-yl)methyl)-5-phenoxyfuran-2-carboxamide] | 35500
12 | Cc1cc(N)nc(C)c1CNC(=O)c1cn(Cc2ccccc2)nc1C [Example 49, N-((6-amino-2,4-dimethylpyridin-3-yl)methyl)-1-benzyl-3-methyl-1H-pyrazole-4-carboxamide] | 679
13 | Cc1cc(N)nc(C)c1CNC(=O)c1cc(C)n(C(C)c2ccccc2)c1C (stereo not shown) [Example 51, N-((6-amino-2,4-dimethylpyridin-3-yl)methyl)-2,5-dimethyl-1-(1-phenylethyl)-1H-pyrrole-3-carboxamide] | 7000
14 | Cc1cc(N)nc(C)c1CNC(=O)c1cc(S(=O)(=O)N2CCOCC2)c[nH]1 [Example 52, N-((6-amino-2,4-dimethylpyridin-3-yl)methyl)-4-(morpholinosulfonyl)-1H-pyrrole-2-carboxamide] | 5700
15 | Cc1cc(N)nc(C)c1CNC(=O)c1cn(Cc2c(F)cccc2F)nn1 [Example 53, N-((6-amino-2,4-dimethylpyridin-3-yl)methyl)-1-(2,6-difluorobenzyl)-1H-1,2,3-triazole-4-carboxamide] | 3600
16 | Cc1cc(N)nc(C)c1CNC(=O)c1cn(Cc2cccc(C#N)c2)nn1 [Example 54, N-((6-amino-2,4-dimethylpyridin-3-yl)methyl)-1-(3-cyanobenzyl)-1H-1,2,3-triazole-4-carboxamide] | 1800
17 | Cc1cc(N)nc(C)c1CNC(=O)c1sc(Cc2ccccc2)nc1C [Example 55, N-((6-amino-2,4-dimethylpyridin-3-yl)methyl)-2-benzyl-4-methylthiazole-5-carboxamide] | 6300
18 | Cc1cc(N)nc(C)c1CNC(=O)c1ncn(Cc2ccccc2)n1 [Example 56, N-((6-amino-2,4-dimethylpyridin-3-yl)methyl)-1-benzyl-1H-1,2,4-triazole-3-carboxamide] | 4400
19 | Cc1cncc(Oc2ccc(Cn3cc(C(=O)NCc4c(C)cc(N)nc4C)cn3)cc2)n1 [Example 57, N-((6-amino-2,4-dimethylpyridin-3-yl)methyl)-1-(4-(6-methylpyrazin-2-yloxy)benzyl)-1H-pyrazole-4-carboxamide] | 144
20 | Cc1cc(N)nc(C)c1CNC(=O)c1coc(Cc2ccccc2)n1 [Example 58, N-((6-amino-2,4-dimethylpyridin-3-yl)methyl)-2-benzyloxazole-4-carboxamide] | 3800
21 | Cc1cc(N)nc(C)c1CNC(=O)c1ncn(Cc2ccc(Cn3cncn3)cc2)n1 [Example 59] | 209
22 | COCCOc1cc(N)nc(C)c1CNC(=O)c1cnn(Cc2ccccc2)c1 [Example 60, N-((6-amino-4-(2-methoxyethoxy)-2-methylpyridin-3-yl)methyl)-1-benzyl-1H-pyrazole-4-carboxamide] | 379
23 | Cc1cc(N)nc(C)c1CNC(=O)c1ncn(Cc2ccc(-c3ccccc3)cc2)n1 [Example 61, N-((6-amino-2,4-dimethylpyridin-3-yl)methyl)-1-(biphenyl-4-ylmethyl)-1H-1,2,4-triazole-3-carboxamide] | 46
24 | Cc1cc(N)nc(C)c1CNC(=O)c1ncn(Cc2cccc3ccccc23)n1 [Example 62, N-((6-amino-2,4-dimethylpyridin-3-yl)methyl)-1-(naphthalen-1-ylmethyl)-1H-1,2,4-triazole-3-carboxamide] | 681
25 | Cc1cc(N)nc(C)c1CNC(=O)c1ncn(Cc2ccc(Oc3ccccc3)cc2)n1 [Example 63, N-((6-amino-2,4-dimethylpyridin-3-yl)methyl)-1-(4-phenoxybenzyl)-1H-1,2,4-triazole-3-carboxamide] | 11
26 | Cc1cc(N)nc(C)c1CNC(=O)c1ncn(Cc2ccc3ccccc3c2)n1 [Example 64, N-((6-amino-2,4-dimethylpyridin-3-yl)methyl)-1-(naphthalen-2-ylmethyl)-1H-1,2,4-triazole-3-carboxamide] | 14
27 | Cc1cc(N)nc(C)c1CNC(=O)c1cnn(Cc2ccc(N3CCCC3=O)cc2)c1 [Example 65, N-((6-amino-2,4-dimethylpyridin-3-yl)methyl)-1-(4-(2-oxopyrrolidin-1-yl)benzyl)-1H-pyrazole-4-carboxamide] | 29
28 | Cc1cc(N)nc(C)c1CNC(=O)c1ncn(Cc2ccc(-n3cccn3)cc2)n1 [Example 66, 1-(4-(1H-pyrazol-1-yl)benzyl)-N-((6-amino-2,4-dimethylpyridin-3-yl)methyl)-1H-1,2,4-triazole-3-carboxamide] | 325
